Experiment [1] has as its target T1, HIV-1 reverse transcriptase (Human immunodeficiency virus type 1 group M subtype B, UniProt P03367).
T1 construct: Reverse transcriptase enzyme from the LAV strain of Human Immuno-deficiencyVirus (HIV-1); made in house; host or cells: E. coli JM109 (species of the strain is own knowledge), DNA clone pBRTprtl+ in expression vector pIBI21 (lac promoter)
Description: Reverse Transcriptase (RT) Assay (RNA-dependent DNA polymerase activity). The experiment is classed as biochemical, Human Immunodeficiency Virus (HIV-1), LAV strain. To be noted: read-out: RT Inhibition (% @ 10 μg/ml). The source says: As stated before, the compounds of formula I inhibit the enzymatic activity of HIV-1 RT. Based upon testing of these compounds, as described below, it is known that they inhibit the RNA-dependent DNA polymerase activity of HIV RT.
Utilizing the Reverse Transcriptase (RT) Assay described below, compounds can be tested for their ability to inhibit the RNA-dependent DNA polymerase activity of HIV RT. Certain specific compounds, described in the Examples which appear below, were so tested.
Among the enzymes for which Human Immunodeficiency Virus (HIV-1) encodes is a reverse transcriptase (1), so-named because it transcribes a DNA copy from an RNA template. This activity can be quantitatively measured in a cell-free enzyme assay which has been previously described (2), and is based upon the observation that reverse transcriptase is able to use a synthetic template [poly r(C) primed with oligo d(G)] to transcribe a radio-labelled, acid-precipitable DNA strand utilizing ^3 H-dGTP as a substrate. […]
a) Preparation of the enzyme
Reverse transcriptase enzyme from the LAV strain of Human Immuno-deficiencyVirus (HIV-1) (1) was isolated from the bacterial strain JM109 (3) expressing the DNA clone pBRTprtl+(2) which is under the control of the lac promotor in the expression vector pIBI21 (4). An overnight culture grown in 2XYT medium (37° C., 225 rpm) (5) supplemented with […] ampicillin for positive selection is inoculated at a 1:40 dilution into M9 medium supplemented with 10 mg/ml thiamine, 0.5% casamino acids, and […] ampicillin (5). The culture is incubated (37° C., 225 rpm) until it reaches an OD540 of 0.3-0.4. At that time the repressor inhibitor IPTG (isopropyl b-D-thiogalactopyranoside) is added to 0.5 mM and incubated for 2 additional hours. Bacteria are pelletted, resuspended in a 50 mM Tris, 0.6 mM EDTA, 0.375M NaCl buffer and digested by the addition of lysozyme (1 mg/ml) for 30 minutes on ice. The cells are lysed by the addition to 0.2% NP-40 and brought to 1M NaCl.
After removal of the insoluble debris by centrifugation, the protein is precipitated by the addition of 3 volumes of saturated aqueous ammonium sulfate. The enzyme is pelleted, resuspended in RT buffer (50 mM Tris pH 7.5, 1 mM EDTA, 5 mMDTT, 0.1% NP-40, 0.1M NaCl, and 50% glycerol) and stored at -70° C. for further use. […]
b) Composition of 2X concentrated stock reaction mixture
Stock Reagent 2X Mix Concentration
[poly r(C)/oligo d(G)](5:1)
The 2X concentrated stock reaction mixture is aliquoted and stored at -20° C. The mixture is stable and thawed for use in each assay. This enzyme assay has been adapted to a 96 well microtiter plate system, and has been previously described (6). Tris buffer (50 mM, pH 7.4), vehicle (solvent diluted to match the compound dilution), or compounds in vehicle are dispensed into 96-well microtiter plates (10 μl/well; 3 wells/compound). The HIV RT enzyme is thawed, diluted in 50 mM Tris pH 7.4 so that fifteen μl of diluted enzyme contain 0.001 Unit (one unit is that amount of enzyme to transform 1 micromole of substrate per minute at 25° C.), and 15 μl are dispensed per well. Twenty μl of 0.12-0.5M EDTA are added to the first three wells of the microtiter plate. EDTA chelates the Mg^++ present and prevents reverse transcription. This group serves as background polymerization which is subtracted from all other groups. Twenty-five μl of the 2X reaction mixture are added to all wells and the assay is allowed to incubate at room temperature for 60 minutes. The assay is terminated by precipitating the DNA in each well with 50μl of 10% trichloracetic acid (TCA) in 1% sodium pyrophosphate. The microtiter plate is incubated for 15 minutes at 4° C. and the precipitate is fixed onto #30 glass fiber paper (Schleicher & Schuell) using a Skatron semi-automatic harvester. […]

For a further experiment, the system named is HIV-1. Description: Human T Cell Culture Assay (HIV-1 induced syncytia formation in C8166 cells). The experiment is classed as cell-based, HIV-1 HTLV-IIIB strain (human C8166 T-cells). To be noted: HTLV-IIIB, four days after virus challenge, compound concentration not given. The method, then:
In order to confirm that compounds which are active in the RT Assay also have the ability to inhibit HIV replication in a living system, a compound of formula I was also tested in the human T-Cell Culture Assay described below.
Assay Theory: Formation of syncytia is a feature of in vitro cultures of CD4+ T-cells infected with HIV-1. In this assay, T-cells are treated with a putative replication inhibiting compound and then infected with HIV-1. After incubation the culture is checked for the formation of syncytia. The absence or reduction is the number of syncytia is used as a measure of the test compound's ability to inhibit HIV replication.
Assay Method: The target cells, designated C8166, are a subclone of human lymphoma cells of T-cell origin and are established at an initial density of 5×10^4 per 100 μl in RPMI 1640 (+10% fetal bovine serum) culture medium in 96 well flat bottom plates. A selected amount of test compound, dissolved in DMSO is included. After 24 hours, 50-100 TCID50 's (the dose that results in induced effect in 50% of test cultures) of the HTLV-IIIB strain of HIV-1 (2) are innoculated into each culture. Control cultures receive compound or virus only. […] The percent inhibition by the test compound is determined by comparison with control values. […]

[2] abbreviates: 10 μg/ml, poly r(C)/oligo d(G) template, 60 minutes, room temperature.

Like-named read-outs stand apart in the source and are kept apart here.

Take `CCOC(=O)CN1C(=O)c2ccccc2Oc2ccccc21` [Example 43]: in experiment [1] (setting [2]), the inhibition at 10 µg/mL is 76%.

With `CCOc1ccc2c(c1)Oc1ccccc1C(=O)N2C` [Example 32], in experiment [1] (setting [2]), the inhibition at 10 µg/mL is 77%.

With `Nc1ccc2c(c1)C(=O)Nc1ccccc1O2` [Example 14], in experiment [1] (setting [2]), the inhibition at 10 µg/mL was determined as 85%.

`CSCN1C(=O)c2ccc(Cl)cc2Oc2ccccc21` [Example 37]: the inhibition at 10 µg/mL in experiment [1] (setting [2]) is 98%.

As for `CCN1C(=O)c2ccccc2Oc2ccccc21` [Example 8], the inhibition at 10 µg/mL in experiment [1] (setting [2]) was 100%.

Regarding `Cc1ccc2c(c1)Oc1ccc(N)cc1C(=O)N2C` [Example 6, 2-Amino-7,10-Dimethyldibenz[b,f][1,4]Oxazepin-11(10H)-One], in experiment [1], the inhibition at 10 µg/mL was 100%.

As to `C=CCN1C(=O)c2ccccc2Oc2cc(N)ccc21` [Example 29], the inhibition at 10 µg/mL in experiment [1] was determined as 89%.

With `C=CCN1C(=O)c2ccccc2Oc2ccccc21` [Example 9], the inhibition at 10 µg/mL in experiment [1] (setting [2]) was determined as 98%.

As to `CSCCN1C(=O)c2ccccc2Oc2cc(C)ccc21` [Example 39], in experiment [1] (setting [2]), the inhibition at 10 µg/mL came to 95%.

With `COc1ccc2c(c1)Oc1ccccc1C(=O)N2` [Example 44], in experiment [1] (setting [2]), the inhibition at 10 µg/mL is 27%.

On to `CSCN1C(=O)c2ccccc2Oc2ccccc21` [Example 34], for which the inhibition at 10 µg/mL in experiment [1] (setting [2]) was determined as 100%.

`O=C1c2ccccc2Oc2ccccc2N1CCF` [Example 46]: in experiment [1] (setting [2]), the inhibition at 10 µg/mL worked out at 93%.

Take `Nc1ccc2c(c1)C(=O)Nc1cc(Cl)ccc1O2` [Example 17]: in experiment [1] (setting [2]), the inhibition at 10 µg/mL came out at 67%.

For `CNc1ccc2c(c1)C(=O)Nc1ccccc1O2` [Example 28], the inhibition at 10 µg/mL in experiment [1] (setting [2]) was found to be 30%.

In the case of `CN1C(=O)c2ccccc2Oc2ccccc21` [Example 10], the inhibition at 10 µg/mL in experiment [1] (setting [2]) is 93%.

For the compound `O=C1c2ccccc2Oc2ccccc2N1C(F)=CI` [Example 47], the inhibition at 10 µg/mL in experiment [1] (setting [2]) turned out to be 92%.

As to `CCCN1C(=O)c2ccccc2Oc2ccccc21` [Example 1, 10-Propyl-10H-Dibenz[b,f][1,4]Oxazepin-11-One], the “T-Cell Culture Assay (% inhibition)” value in the experiment with HIV-1 amounted to 93%. The inhibition at 10 µg/mL in experiment [1] (setting [2]) was 100%.

On to `Nc1ccc2c(c1)Oc1ccccc1NC2=O` [Example 23], for which the inhibition at 10 µg/mL in experiment [1] (setting [2]) came to 25%.

Turning to `C[S+]([O-])CN1C(=O)c2ccccc2Oc2ccccc21` (stereo not drawn) [Example 35], the inhibition at 10 µg/mL in experiment [1] (setting [2]) worked out at 58%.

In the case of `CCOc1ccc2c(c1)Oc1ccccc1C(=O)N2` [Example 42], the inhibition at 10 µg/mL in experiment [1] (setting [2]) came to 30%.

As to `Cc1ccc2c(c1)Oc1ccccc1C(=O)N2CC(N)=O` [Example 31], the inhibition at 10 µg/mL in experiment [1] (setting [2]) was 77%.

`COc1ccc2c(c1)Oc1cccc(OC)c1C(=O)N2` [Example 45]: the inhibition at 10 µg/mL in experiment [1] (setting [2]) turned out to be 44%.

With `C=CCN1C(=O)c2cc(N)ccc2Oc2ccccc21` [Example 27], the inhibition at 10 µg/mL in experiment [1] (setting [2]) worked out at 100%.

For `Cc1ccc2c(c1)NC(=O)c1cc(N)ccc1O2` [Example 18], in experiment [1] (setting [2]), the inhibition at 10 µg/mL was determined as 71%.

`CSCCN1C(=O)c2cc(Cl)ccc2Oc2ccccc21` [Example 41]: the inhibition at 10 µg/mL in experiment [1] (setting [2]) was determined as 49%.

Regarding `C=C(C)CN1C(=O)c2ccccc2Oc2ccccc21` [Example 11], the inhibition at 10 µg/mL in experiment [1] (setting [2]) is 77%.

`O=C1c2ccccc2Oc2ccccc2N1CC(F)(F)F` [Example 48]: the inhibition at 10 µg/mL in experiment [1] (setting [2]) stood at 87%.

Turning to `CCC(=O)N1C(=O)c2ccccc2Oc2ccccc21` [Example 12], the inhibition at 10 µg/mL in experiment [1] (setting [2]) was determined as 44%.

As for `COc1cccc2c1Oc1ccccc1N(CC(N)=O)C2=O` [Example 13], the inhibition at 10 µg/mL in experiment [1] (setting [2]) was 32%.

Take `Nc1ccc2c(c1)Oc1ccccc1C(=O)N2` [Example 21]: the inhibition at 10 µg/mL in experiment [1] (setting [2]) is 3%.

On to `CN1C(=O)c2ccccc2Sc2ccccc21` [Example 49], for which the inhibition at 10 µg/mL in experiment [1] (setting [2]) amounted to 94%.

Take `CN1C(=O)c2cc(N)ccc2Oc2ccccc21` [Example 22]: the inhibition at 10 µg/mL in experiment [1] (setting [2]) is 99%.

For the compound `CCN1C(=O)c2cc(N)ccc2Oc2ccccc21` [Example 16], the inhibition at 10 µg/mL in experiment [1] (setting [2]) was 100%.

Take `CSCCN1C(=O)c2ccc(Cl)cc2Oc2ccccc21` [Example 38]: the inhibition at 10 µg/mL in experiment [1] (setting [2]) stood at 83%.

As for `CCOc1ccc2c(c1)Oc1ccccc1C(=O)N2CC` [Example 33], the inhibition at 10 µg/mL in experiment [1] (setting [2]) is 74%.

Take `Cc1ccc2c(c1)Oc1ccc(N)cc1C(=O)N2` [Example 30]: the inhibition at 10 µg/mL in experiment [1] (setting [2]) stood at 96%.

Take `CN1C(=O)c2ccccc2Oc2cc(N)ccc21` [Example 24]: the inhibition at 10 µg/mL in experiment [1] (setting [2]) is 44%.

Take `O=C1Nc2ccccc2Sc2ccccc21` [Example 4, Dibenz[b,f][1,4]Thiazepin-11(10H)-One]: the inhibition at 10 µg/mL in experiment [1] (setting [2]) turned out to be 43%.

With `Cc1ccc2c(c1)Oc1ccccc1C(=O)N2C[S+](C)[O-]` (stereo not drawn) [Example 40], in experiment [1] (setting [2]), the inhibition at 10 µg/mL was 77%.

For `CNc1ccc2c(c1)C(=O)N(C)c1ccccc1O2` [Example 26], in experiment [1] (setting [2]), the inhibition at 10 µg/mL was 75%.

On to `CCCN1C(=O)c2ccccc2Sc2ccccc21` [Example 5, 10-n-Propyl-Dibenz[b,f][1.4]Thiazepin-11(10H)-One], for which, in experiment [1] (setting [2]), the inhibition at 10 µg/mL came out at 98%.

`CCN1C(=O)c2cc(N)ccc2Oc2ccc(C)cc21` [Example 19]: the inhibition at 10 µg/mL in experiment [1] (setting [2]) came out at 100%.

As to `CCN1C(=O)c2cc(N)ccc2Oc2ccc(Cl)cc21` [Example 20], the inhibition at 10 µg/mL in experiment [1] (setting [2]) was 95%.

With `CN1C(=O)c2ccc(N)cc2Oc2ccccc21` [Example 25], in experiment [1] (setting [2]), the inhibition at 10 µg/mL came out at 26%.

`O=C1Nc2ccccc2Oc2ccccc21` [Example 7]: the inhibition at 10 µg/mL in experiment [1] (setting [2]) stood at 22%.

As for `CCCN1C(=S)c2ccccc2Oc2ccccc21` [Example 3, 10 -Propyl-10H-Dibenz [b,f][1,4]Oxazepin-11-Thione], the inhibition at 10 µg/mL in experiment [1] (setting [2]) is 94%.

Turning to `CSCCN1C(=O)c2ccccc2Oc2ccccc21` [Example 36], in experiment [1] (setting [2]), the inhibition at 10 µg/mL is 85%.

For the compound `NC(=O)CN1C(=O)c2ccccc2Sc2ccccc21` [Example 50], in experiment [1] (setting [2]), the inhibition at 10 µg/mL is 66%.

As to `CC(C)N1C(=O)c2ccccc2Oc2ccccc21` [Example 2, 10-Isopropyl-10H-Dibenz[b,f][1,4]Oxazepin-11-One], the inhibition at 10 µg/mL in experiment [1] (setting [2]) came to 100%.

Turning to `NC(=O)CN1C(=O)c2cc(N)ccc2Oc2ccccc21` [Example 15], the inhibition at 10 µg/mL in experiment [1] (setting [2]) was found to be 82%.

(Values after patent US5571806A, “Dibenz[b,f][1,4]oxazepin(and thiazepin)-11(10H)-ones and-thiones and their use in the prevention or treatment of HIV infection” (Boehringer Ingelheim Pharmaceuticals, Inc., priority 1994, dated 1996).)
